# From patent US20230210853A1 (Halia Therapeutics, Inc., priority 2020, published 2023)
# Target: T1, full-length recombinant human NEK7 (Homo sapiens, UniProt Q8TDX7)
# T1 construct: full-length recombinant human NEK7; GST (N); purchased SignalChem N09-10G; host or cells: Sf9 insect cells (baculovirus)
# Assay: NEK7 enzymatic assay ([33P]-ATP, casein substrate)
# Assay type: biochemical
# Experimental: In some embodiments, the IC50 of the compounds of Structure (I), (Ia), (Ib), (Ic), (Id), (Ie), or (If) to inhibit NEK7 was determined by the concentration of the compound required to inhibit 50% of the activity of the NEK kinase.
# (§1) Casein substrate (from bovine milk, hydrolyzed and partially dephosphorylated mixture of α, β and κ caseins, obtained from Sigma Aldrich, catalogue #C4765, diluted in distilled water to a final concentration of 1 mg/mL) and full-length recombinant human NEK7 (expressed by baculovirus in Sf9 insect cells using a N-terminal GST tag, obtained from SignalChem, catalogue #N09-10G, 0.1 μg/μL) were mixed in assay buffer (20 mM Hepes pH 7.5, 10 mM MgCl2, 1 mM EGTA, 0.02% Brij35, 0.02 mg/ml BSA, 0.1 mM Na3 VO4, 2 mM DTT, 1% DMSO). Compounds of interest (serial 3-fold dilution in DMSO from 10 μM to 0.5 nM) or vehicle (1% DMSO) were dispensed into the kinase reaction mixture by Acoustic technology (Echo550, nanoliter range). After incubation at room temperature for 20 minutes, the kinase reaction was initiated by addition of [^33P]-ATP (specific activity 10 μCi/μl) and the mixture was incubated at room temperature for 2 hours. The reaction was then stopped by spotting the reaction mixture on strips of phosphocellulose P81 paper. Following washing, the radioactivity of the P81 paper was measured and kinase activity data were expressed as the percent remaining kinase activity in test samples compared to vehicle reactions. IC50 values and curve fits were obtained using Prism (GraphPad Software).
# as §1, with “μg/L)” for “μg/μL)”, “Na3VO4,” for “Na3 VO4,”, “(Echo550;” for “(Echo550,”
# [1] = Table 2b, recombinant human NEK7, casein substrate
# [2] = Table 2e, recombinant human NEK7, casein substrate
# [3] = Table 2a, recombinant human NEK7, casein substrate
# [4] = Table 2d, recombinant human NEK7, casein substrate
# [5] = comparative compounds of Structure (II)
# T1 sequence (Q8TDX7 whole entry): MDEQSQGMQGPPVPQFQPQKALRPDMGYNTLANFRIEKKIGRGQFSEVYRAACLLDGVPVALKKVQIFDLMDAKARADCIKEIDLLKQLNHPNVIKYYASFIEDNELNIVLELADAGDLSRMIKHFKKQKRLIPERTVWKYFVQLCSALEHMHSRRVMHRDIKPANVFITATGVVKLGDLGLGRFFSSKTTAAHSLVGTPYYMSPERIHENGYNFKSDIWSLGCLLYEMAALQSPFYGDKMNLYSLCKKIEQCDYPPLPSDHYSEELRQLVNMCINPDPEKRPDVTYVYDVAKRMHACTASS
compound,measurement,setting,value
"CC(C)(C)c1cc(NC(=O)Nc2ccc(Oc3ncnc4[nH]cc(Cl)c34)cc2F)n(-c2ccccc2)n1 [Ib-13, 1-(3-(tert-butyl)-1-phenyl-1H-pyrazol-5-yl)-3-(4-((5-chloro-7H-pyrrolo[2,3-b]pyrimidin-4-yl)oxy)-2-fluorophenyl)urea]",IC50,[1],> 1500 nM
"CC(C)N1CCN(Cc2ccc(NC(=O)Nc3ccc(Oc4ccnc5[nH]cc(Cl)c45)cc3F)cc2C(F)(F)F)CC1 [Ie-10, 1-(4-((3-chloro-1H-pyrrolo[2,3-b]pyridin-4-yl)oxy)-2-fluorophenyl)-3-(4-((4-isopropylpiperazin-1-yl)methyl)-3-(trifluoromethyl)phenyl)urea]",IC50,[2],301 to 500 nM
"CC(C)(C)c1cc(NC(=O)Nc2ccc(-c3nn(C4COC4)c4ncnc(N)c34)cc2)no1 [Ia-3, 1-(4-(4-amino-1-(oxetan-3-yl)-1H-pyrazolo[3,4-d]pyrimidin-3-yl)phenyl)-3-(5-(tert-butyl)isoxazol-3-yl)urea]",IC50,[3],151 to 300 nM
"Cc1nc2c(Oc3ccc(NC(=O)Nc4cc(C(C)(C)C)nn4-c4ccccc4)c(F)c3)ccnc2[nH]1 [Ib-19, 1-(3-(tert-butyl)-1-phenyl-1H-pyrazol-5-yl)-3-(2-fluoro-4-((2-methyl-3H-imidazo[4,5-b]pyridin-7-yl)oxy)phenyl)urea]",IC50,[1],> 1500 nM
"COc1cc(NC(=O)Nc2ccc(-c3cn(C4CC4)c4ncnc(N)c34)cc2F)ccc1CN1CCN(C)CC1 [Id-37, 1-(4-(4-amino-7-cyclopropyl-7H-pyrrolo[2,3-d]pyrimidin-5-yl)-2-fluorophenyl)-3-(3-methoxy-4-((4-methylpiperazin-1-yl)methyl)phenyl)urea]",IC50,[4],> 1500 nM
"CN1CCN(Cc2ccc(NC(=O)Nc3ccc(Oc4ccnc5[nH]c(Cl)c(Cl)c45)cc3F)cc2C(F)(F)F)CC1 [Ie-25, 1-(4-((2,3-dichloro-1H-pyrrolo[2,3-b]pyridin-4-yl)oxy)-2-fluorophenyl)-3-(4-((4-methylpiperazin-1-yl)methyl)-3-(trifluoromethyl)phenyl)urea]",IC50,[2],301 to 500 nM
"COCCN1CCN(Cc2ccc(NC(=O)Nc3ccc(-c4cn(C5CC5)c5ncnc(N)c45)cc3F)cc2C(F)(F)F)CC1 [Id-42, 1-(4-(4-amino-7-cyclopropyl-7H-pyrrolo[2,3-d]pyrimidin-5-yl)-2-fluorophenyl)-3-(4-((4-(2-methoxyethyl)piperazin-1-yl)methyl)-3-(trifluoromethyl)phenyl)urea]",IC50,[4],< 150 nM
"Cc1cc(NC(=O)Nc2ccc(Oc3ccnc4[nH]cc(Cl)c34)cc2F)n(-c2ccc(C#N)cc2)n1 [Ib-9, 1-(4-((3-chloro-1H-pyrrolo[2,3-b]pyridin-4-yl)oxy)-2-fluorophenyl)-3-(1-(4-cyanophenyl)-3-methyl-1H-pyrazol-5-yl)urea]",IC50,[1],> 1500 nM
"Cc1c(CC(=O)N2CCc3c2ccc(-c2nn(C(C)C)c4ncnc(N)c24)c3F)cccc1C(F)(F)F [II-6, 1-(5-(4-amino-1-isopropyl-1H-pyrazolo[3,4-d]pyrimidin-3-yl)-4-fluoroindolin-l-yl)-2-(2-methyl-3-(trifluoromethyl)phenyl)ethan-1-one]",IC50,[5],> 1500 nM
"CCN1CCN(Cc2ccc(NC(=O)Nc3ccc(-c4cn(C5CC5)c5ncnc(N)c45)cc3Cl)cc2C(F)(F)F)CC1 [Id-54, 1-(4-(4-amino-7-cyclopropyl-7H-pyrrolo[2,3-d]pyrimidin-5-yl)-2-chlorophenyl)-3-(4-((4-ethylpiperazin-1-yl)methyl)-3-(trifluoromethyl)phenyl)urea]",IC50,[4],< 150 nM
"CN1C[C@H]2CC[C@@H](C1)N2Cc1ccc(NC(=O)Nc2ccc(Oc3ccnc4[nH]cc(Cl)c34)cc2F)cc1C(F)(F)F [Ie-33, 1-(4-((3-chloro-1H-pyrrolo[2,3-b]pyridin-4-yl)oxy)-2-fluorophenyl)-3-(4-(((1R,5S)-3-methyl-3,8-diazabicyclo[3.2.1]octan-8-yl)methyl)-3-(trifluoromethyl)phenyl)urea]",IC50,[2],> 1500 nM
"Nc1ncnc2c1c(-c1ccc(NC(=O)Nc3ccc(CN4CCOCC4)cc3F)c(F)c1)nn2C1CC1 [Id-26, 1-(4-(4-amino-1-cyclopropyl-1H-pyrazolo[3,4-d]pyrimidin-3-yl)-2-fluorophenyl)-3-(2-fluoro-4-(morpholinomethyl)phenyl)urea]",IC50,[4],> 1500 nM
CN1CCN(Cc2ccc(NC(=O)Nc3ccc(-c4cn(CCO)c5ncnc(N)c45)cc3F)cc2C(F)(F)F)CC1 [Id-70],IC50,[4],< 150 nM
"CN(C)Cc1ccc(NC(=O)Nc2ccc(Oc3ccnc4[nH]cc(Cl)c34)cc2F)cc1C(F)(F)F [Ie-7, 1-(4-((3-chloro-1H-pyrrolo[2,3-b]pyridin-4-yl)oxy)-2-fluorophenyl)-3-(4-((dimethylamino)methyl)-3-(trifluoromethyl)phenyl)urea]",IC50,[2],> 1500 nM
"CC(C)(C)c1cc(NC(=O)Nc2ccc(-c3nn(C4CCOC4)c4ncnc(N)c34)cc2F)on1 (centres unmarked) [Ia-24, 1-(4-(4-amino-1-(tetrahydrofuran-3-yl)-1H-pyrazolo[3,4-d]pyrimidin-3-yl)-2-fluorophenyl)-3-(3-(tert-butyl)isoxazol-5-yl)urea]",IC50,[3],< 150 nM
"CC(C)(C)c1cc(NC(=O)Nc2ccc(Oc3ccnc4[nH]cc(Cl)c34)cc2F)n(-c2ccccc2)n1 [Ib-6, 1-(3-(tert-butyl)-1-phenyl-1H-pyrazol-5-yl)-3-(4-((3-chloro-1H-pyrrolo[2,3-b]pyridin-4-yl)oxy)-2-fluorophenyl)urea]",IC50,[1],501 to 1500 nM
"CN1CCN(Cc2ccc(NC(=O)Nc3ccc(-c4cn(C5CC5)c5ncnc(N)c45)cc3F)cc2F)CC1 [Id-35, 1-(4-(4-amino-7-cyclopropyl-7H-pyrrolo[2,3-d]pyrimidin-5-yl)-2-fluorophenyl)-3-(3-fluoro-4-((4-methylpiperazin-1-yl)methyl)phenyl)urea]",IC50,[4],301 to 500 nM
"CC(C)n1nc(-c2ccc3c(c2Cl)CCN3C(=O)Cc2ccc(F)c(C(F)(F)F)c2)c2c(N)ncnc21 [II-8, 1-(5-(4-amino-1-isopropyl-1H-pyrazolo[3,4-d]pyrimidin-3-yl)-4-chloroindolin-1-yl)-2-(4-fluoro-3-(trifluoromethyl)phenyl)ethan-1-one]",IC50,[5],501 to 1500 nM
CN1CCN(Cc2ccc(NC(=O)Nc3ncc(-c4cn(C5CC5)c5ncnc(N)c45)cc3F)cc2C(F)(F)F)CC1 [Id-66],IC50,[4],< 150 nM
"O=C(Nc1ccc(CN2CC(F)(F)C2)c(C(F)(F)F)c1)Nc1ccc(Oc2ccnc3[nH]cc(Cl)c23)cc1F [Ie-32, 1-(4-((3-chloro-1H-pyrrolo[2,3-b]pyridin-4-yl)oxy)-2-fluorophenyl)-3-(4-((3,3-difluoroazetidin-1-yl)methyl)-3-(trifluoromethyl)phenyl)urea]",IC50,[2],> 1500 nM
CN1CC2CC1CN2Cc1ccc(NC(=O)Nc2ccc(-c3cn(C4CC4)c4ncnc(N)c34)cc2F)cc1C(F)(F)F (centres unmarked) [Id-63],IC50,[4],< 150 nM
"CC(C)(c1cc(NC(=O)Nc2ccc(-c3nn(C4CC4)c4ncnc(N)c34)cc2F)on1)C(F)(F)F [Ia-22, 1-(4-(4-amino-1-cyclopropyl-1H-pyrazolo[3,4-d]pyrimidin-3-yl)-2-fluorophenyl)-3-(3-(1,1,1-trifluoro-2-methylpropan-2-yl)isoxazol-5-yl)urea]",IC50,[3],151 to 300 nM
"Nc1ncnc2c1c(-c1ccc(NC(=O)Nc3ccc(CN4CCOCC4)c(F)c3)c(F)c1)nn2C1CC1 [Id-47, 1-(4-(4-amino-1-cyclopropyl-1H-pyrazolo[3,4-d]pyrimidin-3-yl)-2-fluorophenyl)-3-(3-fluoro-4-(morpholinomethyl)phenyl)urea]",IC50,[4],> 1500 nM
Nc1ncnc2c1c(-c1ccc(NC(=O)Nc3ccc(CN4CCN(CCO)CC4)c(C(F)F)c3)c(F)c1)cn2C1CC1 [Id-71],IC50,[4],< 150 nM
"CN1CCN(C(=O)c2ccc(NC(=O)Nc3ccc(Oc4ccnc5[nH]cc(Cl)c45)cc3F)cc2C(F)(F)F)CC1 [Ie-15, 1-(4-((3-chloro-1H-pyrrolo[2,3-b]pyridin-4-yl)oxy)-2-fluorophenyl)-3-(4-(4-methylpiperazine-1-carbonyl)-3-(trifluoromethyl)phenyl)urea]",IC50,[2],> 1500 nM
"CN1CCN(Cc2ccc(NC(=O)Nc3ccc(-c4nn(C5CC5)c5ncnc(N)c45)cn3)cc2C(F)(F)F)CC1 [Id-29, 1-(5-(4-amino-1-cyclopropyl-1H-pyrazolo[3,4-d]pyrimidin-3-yl)pyridin-2-yl)-3-(4-((4-methylpiperazin-1-yl)methyl)-3-(trifluoromethyl)phenyl)urea]",IC50,[4],151 to 300 nM
